{"source": "paper PMC11233931", "about": "“Remodeling tumor‐associated macrophage for anti‐cancer effects by rational design of irreversible inhibition of mitogen‐activated protein kinase‐activated protein kinase 2” (MedComm, 2024)", "key": {"[1]": {"molecular_target": "T1, 380 human recombinant protein kinases (Homo sapiens, UniProt P08069)", "T1 construct": "purchased Eurofins (Celle Lévescault)", "T1 sequence (P08069 31-1367)": "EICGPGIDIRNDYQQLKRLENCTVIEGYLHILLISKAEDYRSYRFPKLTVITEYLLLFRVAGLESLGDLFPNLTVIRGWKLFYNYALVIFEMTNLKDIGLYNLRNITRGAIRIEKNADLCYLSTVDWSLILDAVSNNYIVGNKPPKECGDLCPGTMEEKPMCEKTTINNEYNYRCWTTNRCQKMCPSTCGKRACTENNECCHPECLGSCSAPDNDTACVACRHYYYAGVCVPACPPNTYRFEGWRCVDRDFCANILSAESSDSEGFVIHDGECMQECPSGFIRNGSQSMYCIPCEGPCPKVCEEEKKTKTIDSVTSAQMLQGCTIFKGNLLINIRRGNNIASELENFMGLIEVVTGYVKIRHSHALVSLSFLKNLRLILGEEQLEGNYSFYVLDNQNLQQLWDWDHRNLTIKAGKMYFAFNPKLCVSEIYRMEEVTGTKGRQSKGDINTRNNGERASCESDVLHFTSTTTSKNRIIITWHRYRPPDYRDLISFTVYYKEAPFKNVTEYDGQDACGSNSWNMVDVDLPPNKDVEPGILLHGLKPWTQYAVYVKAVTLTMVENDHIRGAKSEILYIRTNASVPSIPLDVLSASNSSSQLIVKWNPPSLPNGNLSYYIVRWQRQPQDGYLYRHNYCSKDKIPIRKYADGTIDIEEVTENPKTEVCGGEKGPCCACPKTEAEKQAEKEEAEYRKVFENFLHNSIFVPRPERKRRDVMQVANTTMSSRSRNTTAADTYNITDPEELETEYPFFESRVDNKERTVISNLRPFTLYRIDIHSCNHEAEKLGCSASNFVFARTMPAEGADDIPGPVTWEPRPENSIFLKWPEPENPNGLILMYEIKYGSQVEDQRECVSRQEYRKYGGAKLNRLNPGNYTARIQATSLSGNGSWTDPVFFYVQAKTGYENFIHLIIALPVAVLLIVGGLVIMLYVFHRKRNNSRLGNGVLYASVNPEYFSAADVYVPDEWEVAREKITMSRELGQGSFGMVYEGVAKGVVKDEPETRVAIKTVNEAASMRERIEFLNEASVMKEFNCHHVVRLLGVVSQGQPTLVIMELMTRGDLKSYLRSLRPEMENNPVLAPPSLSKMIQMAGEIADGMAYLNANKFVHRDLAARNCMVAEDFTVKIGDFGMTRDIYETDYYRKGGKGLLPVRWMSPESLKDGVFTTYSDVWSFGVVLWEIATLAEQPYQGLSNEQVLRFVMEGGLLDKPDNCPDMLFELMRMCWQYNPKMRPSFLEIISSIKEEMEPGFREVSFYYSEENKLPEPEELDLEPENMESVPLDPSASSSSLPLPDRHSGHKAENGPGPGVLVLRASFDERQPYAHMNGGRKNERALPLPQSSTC", "test": "Eurofins kinase selectivity profile against 380 other human recombinant kinases (Table S2)", "format": "biochemical", "conditions": "IGF-1R(h), read-out: Inhibition rate", "method": "Subsequently, to ascertain whether the high potency of compound 11 was specific for MK2, an additional 380 human recombinant protein kinases were screened.\nTo assess the impact of various compounds on MK2 kinase activity, we utilized the ADP‐Glo Assay Kit (Promega) following the manufacturer's instructions. Luminescence measurements were taken using a SpectraMax Paradigm reader. The inhibition percentage was calculated using the following formula: ((specific signalDMSO control − specific signal inhibitor)/(specific signalDMSO control)) × 100%. The IC50 values were determined employing dose–response curve fitting via Prism (Graph Pad). Additionally, Eurofins company (Celle Lévescault) conducted the analysis on compound 11’s inhibitory activity against 380 other human recombinant kinases at various concentrations."}, "[2]": {"test_system": "MRC1 and ARG-1 mRNA in bone marrow-derived macrophages (BMDM)", "test": "RT-PCR of M2 markers in IL-4/IL-13 stimulated BMDM", "format": "cell-based, mouse", "conditions": "IL-4/IL-13 20 ng/mL", "text": "A previous study has reported that MK2 fostered M2‐like polarization of TAMs, driving a protumor and proangiogenic phenotype which in turn accelerates tumor progression.[21] We thus assessed the influence of compound 11 on macrophage polarization and function. Our experiments used human THP‐1 monocyte induced macrophages, mouse RAW264.7 macrophages, and mouse bone marrow‐derived macrophages (BMDM). These cells were induced into M2‐like macrophages using the classic IL‐4 and IL‐13 stimuli.\nFIGURE 5 Inhibition of pro‐tumorigenic M2‐like polarization in macrophages by compound 11. (A–C) RT‐PCR analysis highlights the impact of compound 11 on MRC1 and ARG‐1 mRNA expression in various macrophage cells treated with IL‐4/IL‐13 alone or combined with compound 11 for 12 h or 24 h. […] Data are shown as the mean ± SD. ^* p < 0.05; ^*** p < 0.001 versus the vehicle group, determined by unpaired t test. […]\nTotal RNA was extracted from cultured cells using the EZ‐press RNA Purification Kit (EZBioscience). Complementary DNA was synthesized using the ABScript III RT Master Mix for qPCR with gDNA remover (ABclonal Technology) and was quantified with primers listed in Table S5. The relative mRNA expression levels were quantified through qPCR using the SYBR green gene expression assay (ABclonal Technology)."}, "[3]": {"test": "Cell viability assay (CCK-8), THP-1", "format": "cell-based", "conditions": "THP-1 cells (monocyte), THP-1, human monocyte, read-out: IC50 (μM) mean ± SD, cytotoxicity", "method": "In cellular experiments, cells are seeded into either 6-well or 96-well plates and incubated overnight, proceeding with treatments as described in the figure legends or methods section. The cell inoculation numbers are outlined as follows: For assays measuring cell viability, between 3,000 to 5,000 cells are seeded per well in 96-well plates. For other cellular assays, the seeding density ranges from 5×10^5 to 1×10^6 cells per well in 6-well plates.\nCells was plated into 96-well plates and incubated overnight prior to introduction of varying concentrations of compounds or control solvent. Following a 72-hour exposure period, cell viability was determined using a Cell Counting Kit-8 assay (Life-iLab, China). Dose-response curves were fitted using a four-parameter method facilitated by SoftMax Pro, which was subsequently used for the computation of IC50 values."}, "[4]": {"test": "Mouse pharmacokinetics study", "format": "in vivo", "conditions": "male, ICR, plasma, mice, ip. 10 mg/kg, mean ± SD", "method": "Compound 11 was dissolved in DMSO/Tween 80/PEG400/NaCl (5/5/45/45, v/v/v/v) to a concentration of 5 mg/mL and given to ICR mice (male, 18−22 g, n = 3) by intraperitoneal injection. Blood samples were obtained at intervals of 0.25, 0.5, 1, 2, 4, and 8 h following administration. The sample preparation and the analysis were following the protocol provided in the Supporting Information Methods.\n[…] of plasma was mixed with […] of methanol: acetonitrile solvent (1:1, v/v) with internal standard, and the mixture was thoroughly vortexed. After centrifugation for 5 minutes, […] of the supernatant was combined with […] of water for analysis. Samples were analyzed by Xevo TQ-S triple quadrupole mass spectrometer. The ACQUITY UPLC BEH C^18 (1.7 µm, 2.0mm_ 50 mm, Waters, USA) was adopted for the analysis. Gradient elution was employed using a 5 mM ammonium acetate aqueous solution containing 0.1% formic acid, along with acetonitrile containing 0.1% formic acid. Following the analysis of compound concentrations, Phoenix WinNonlin (CERTARA, USA) was utilized to calculate the value of AUClast, AUCINFinf_obs and MRTINFinf_obs from time-concentration curves in each animal. Cmax denotes the peak plasma concentration, while Tmax signifies the time taken to achieve the peak concentration."}}}
{"smiles": "C=CC(=O)Nc1cc(-c2cc(-c3cc4c([nH]3)CCNC4=O)ccn2)ccc1OC(F)(F)F", "note": "[compound 11]", "values": [{"measurement": "inhibition at 0.01 µM", "setting": "[1]; 10 nM", "value": -3, "unit": "%"}, {"measurement": "inhibition at 0.1 µM", "setting": "[1]; 100 nM", "value": -2, "unit": "%"}, {"measurement": "inhibition at 1 µM", "setting": "[1]; 1000 nM", "value": -14, "unit": "%"}, {"measurement": "effect on transcriptional level of MRC1 and ARG-1", "setting": "[2]", "value": "significantly suppressed"}, {"measurement": "IC50 at 72 h", "setting": "[3]", "value": "34.7 ± 0.4", "unit": "µM"}, {"measurement": "AUC(0-t)", "setting": "[4]", "value": "44.5 ± 21.4", "unit": "ng·h/mL"}, {"measurement": "Cmax", "setting": "[4]", "value": 126, "unit": "ng/mL"}, {"measurement": "Tmax", "setting": "[4]", "value": 3, "unit": "min"}, {"measurement": "half-life", "setting": "[4]", "value": 22.8, "unit": "min"}, {"measurement": "AUC", "setting": "[4]; read-out: AUCinf_obc", "value": "45.2 ± 21.3", "unit": "ng·h/mL"}, {"measurement": "MRT inf", "setting": "[4]; read-out: MRTinf_obs", "value": "98.4 ± 125", "unit": "min"}]}
